Measured values from PMC3752901 (Clinical cancer research : an official journal of the …, 2013).

Key:
[1] = ref 24 (methotrexate), 14 (cefadroxil); cited from earlier work
ABCC4 = settings: cited from earlier work; for Km: read-out: Michaelis-Menten constant (Km) for ABCC4
human ABCC4 = biological target: T1, human ABCC4 (Homo sapiens, UniProt O15439); assay: Uptake into inside-out Sf9 vesicles expressing ABCC4; settings: GSH 2mM
T1 sequence (O15439 1-1325): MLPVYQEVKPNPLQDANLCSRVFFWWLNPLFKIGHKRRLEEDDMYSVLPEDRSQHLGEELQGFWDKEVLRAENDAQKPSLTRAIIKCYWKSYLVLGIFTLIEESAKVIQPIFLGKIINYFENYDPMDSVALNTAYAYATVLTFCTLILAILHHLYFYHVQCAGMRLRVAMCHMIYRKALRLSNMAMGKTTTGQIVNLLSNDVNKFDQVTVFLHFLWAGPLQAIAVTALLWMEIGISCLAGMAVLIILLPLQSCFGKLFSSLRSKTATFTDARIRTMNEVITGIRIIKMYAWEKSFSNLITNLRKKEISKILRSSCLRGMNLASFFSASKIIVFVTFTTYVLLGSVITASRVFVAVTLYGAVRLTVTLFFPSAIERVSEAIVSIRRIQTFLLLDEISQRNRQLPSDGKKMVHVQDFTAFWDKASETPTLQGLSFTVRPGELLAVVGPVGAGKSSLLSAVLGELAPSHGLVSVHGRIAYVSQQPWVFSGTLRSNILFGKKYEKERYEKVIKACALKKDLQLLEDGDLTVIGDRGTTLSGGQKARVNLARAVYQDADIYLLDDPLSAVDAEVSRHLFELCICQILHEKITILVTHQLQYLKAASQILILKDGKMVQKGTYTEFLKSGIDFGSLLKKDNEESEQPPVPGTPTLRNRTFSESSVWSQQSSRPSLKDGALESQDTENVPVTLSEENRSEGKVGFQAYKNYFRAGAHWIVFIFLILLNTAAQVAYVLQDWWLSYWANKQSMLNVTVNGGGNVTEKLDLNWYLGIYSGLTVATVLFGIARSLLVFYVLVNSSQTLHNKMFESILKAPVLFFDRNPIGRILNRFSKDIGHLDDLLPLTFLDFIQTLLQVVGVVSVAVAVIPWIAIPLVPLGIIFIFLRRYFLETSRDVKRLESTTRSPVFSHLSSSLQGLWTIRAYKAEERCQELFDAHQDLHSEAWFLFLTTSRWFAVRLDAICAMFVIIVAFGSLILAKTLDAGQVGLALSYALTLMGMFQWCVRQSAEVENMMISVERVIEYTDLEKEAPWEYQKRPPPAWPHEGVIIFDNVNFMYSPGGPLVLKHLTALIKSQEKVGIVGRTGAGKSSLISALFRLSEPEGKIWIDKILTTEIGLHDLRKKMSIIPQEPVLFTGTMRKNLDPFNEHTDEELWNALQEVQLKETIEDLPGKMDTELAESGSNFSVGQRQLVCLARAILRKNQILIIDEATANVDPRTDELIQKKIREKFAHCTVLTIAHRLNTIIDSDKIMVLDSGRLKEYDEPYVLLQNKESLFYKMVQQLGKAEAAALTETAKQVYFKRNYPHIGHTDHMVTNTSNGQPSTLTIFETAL

mouse Abcc4 [2] = biological target: T2, mouse Abcc4 (Mus musculus, UniProt E9Q236); settings: 4 h
T2 sequence (E9Q236 1-1325): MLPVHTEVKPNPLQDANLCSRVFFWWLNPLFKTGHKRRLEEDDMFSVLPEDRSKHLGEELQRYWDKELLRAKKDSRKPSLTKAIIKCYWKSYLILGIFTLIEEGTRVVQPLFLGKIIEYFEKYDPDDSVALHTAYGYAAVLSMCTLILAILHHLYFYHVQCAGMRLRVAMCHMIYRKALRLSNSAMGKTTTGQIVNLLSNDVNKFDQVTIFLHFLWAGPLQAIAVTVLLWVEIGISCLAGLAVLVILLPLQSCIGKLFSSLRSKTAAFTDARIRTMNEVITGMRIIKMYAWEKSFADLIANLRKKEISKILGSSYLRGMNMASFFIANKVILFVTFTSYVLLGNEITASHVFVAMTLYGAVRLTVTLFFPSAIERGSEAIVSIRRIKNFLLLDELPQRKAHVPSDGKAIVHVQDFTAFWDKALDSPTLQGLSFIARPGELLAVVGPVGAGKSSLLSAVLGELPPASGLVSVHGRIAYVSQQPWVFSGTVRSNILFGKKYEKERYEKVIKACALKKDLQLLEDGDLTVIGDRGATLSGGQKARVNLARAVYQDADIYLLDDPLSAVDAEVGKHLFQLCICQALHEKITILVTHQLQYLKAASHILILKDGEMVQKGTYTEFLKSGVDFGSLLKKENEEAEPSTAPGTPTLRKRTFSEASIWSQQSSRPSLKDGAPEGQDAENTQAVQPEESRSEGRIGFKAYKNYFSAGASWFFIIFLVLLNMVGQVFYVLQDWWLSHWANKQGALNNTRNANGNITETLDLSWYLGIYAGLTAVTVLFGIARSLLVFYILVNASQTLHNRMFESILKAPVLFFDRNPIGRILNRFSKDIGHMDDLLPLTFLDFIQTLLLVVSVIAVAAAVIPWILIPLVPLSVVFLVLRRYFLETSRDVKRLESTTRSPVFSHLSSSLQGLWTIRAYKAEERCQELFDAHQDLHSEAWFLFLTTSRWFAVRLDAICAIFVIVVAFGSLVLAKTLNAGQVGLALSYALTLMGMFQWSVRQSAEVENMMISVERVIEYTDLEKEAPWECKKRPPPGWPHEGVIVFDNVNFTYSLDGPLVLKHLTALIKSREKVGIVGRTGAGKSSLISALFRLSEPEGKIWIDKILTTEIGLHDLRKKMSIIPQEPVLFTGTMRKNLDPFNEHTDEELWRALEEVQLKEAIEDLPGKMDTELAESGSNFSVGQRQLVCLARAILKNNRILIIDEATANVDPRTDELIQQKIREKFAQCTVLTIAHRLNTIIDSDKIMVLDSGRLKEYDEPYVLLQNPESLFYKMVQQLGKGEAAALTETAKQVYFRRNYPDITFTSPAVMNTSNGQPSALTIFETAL

[3] = Plasma pharmacokinetics in wildtype and Abcc4; settings: oral 50 mg/kg, wildtype vs Abcc4(−/−) mice
mouse Abcc4 [4] = biological target: T2, mouse Abcc4; assay: Accumulation/efflux in Saos-2 cells transfected with Abcc4; settings: 100 μM, 4-h incubation

SMILES: CN(Cc1cnc2nc(N)nc(N)c2n1)c1ccc(C(=O)N[C@@H](CCC(=O)O)C(=O)O)cc1 [MTX, methotrexate]
- pharmacokinetic profile after oral administration in Abcc4(−/−) mice [1]: unchanged
- Km (ABCC4): 220 to 1300 µM

SMILES: C[C@]12CC[C@@H]3c4ccc(O)cc4CC[C@H]3[C@@H]1CC[C@@H]2O[C@@H]1O[C@H](C(=O)O)[C@@H](O)[C@H](O)[C@H]1O [E2G, Estradiol-17β-D-glucuronide]
- increase of ABCC4-mediated transport by GSH (human ABCC4): about 2 fold

SMILES: CC(=O)Oc1ccccc1C(=O)O [aspirin, acetylsalicylic acid]
- substrate of mouse Abcc4 (mouse Abcc4 [2]): substrates of mouse Abcc4
- transported substrate of human ABCC4 (ABCC4): transported substrate of human ABCC4

SMILES: C[C@H](Cn1cnc2c(N)ncnc21)OCP(=O)(O)O [tenofovir]
- Km (ABCC4): > 1000 µM

SMILES: Nc1nc2c(c(=O)[nH]1)N(C=O)C(CNc1ccc(C(=O)N[C@@H](CCC(=O)O)C(=O)O)cc1)CN2 (stereo partly drawn) [leucovorin]
- Km (ABCC4): 640 µM

SMILES: CC1=C(C(=O)O)N2C(=O)[C@@H](NC(=O)[C@H](N)c3ccc(O)cc3)[C@H]2SC1 [cefadroxil]
- pharmacokinetic profile after oral administration in Abcc4(−/−) mice [1]: unchanged

SMILES: Nc1ncnc2c1ncn2CCOCP(=O)(O)O [adefovir]
- Km (ABCC4): > 1000 µM

SMILES: O=C(O)c1ccccc1O [salicylic acid]
- substrate of mouse Abcc4 (mouse Abcc4 [2]): substrates of mouse Abcc4

SMILES: Cc1ccc(NC(=O)c2ccc(CN3CCN(C)CC3)cc2)cc1Nc1nccc(-c2cccnc2)n1 [imatinib]
- effect of Abcc4-deficiency on the oral pharmacokinetic profile [3]: not substantially affected
- transport by mouse Abcc4 (accumulation in Saos-2 cells overexpressing Abcc4 compared to control cells) (mouse Abcc4 [4]): no noticeable efflux transport
